The subject of data set [1] is MT2. Kind of data set: Cellular antiviral activity (IC90) assessed on human MT-2 cells infected with HIV-RF. Type of data set: functional.
Data set [2] concerns the target Human immunodeficiency virus type 1 protease (Human immunodeficiency virus 1, UniProt Q72874). Kind of data set: Compound was tested for binding affinity against HIV-1 Protease.
A short description of data set [3]: In vivo evaluation of maximum plasma concentration at a dose of 10 mg/kg. It is filed as ADME, organism-based. The arrangement: dose 10 mg/kg.
A short description of data set [4]: Oral bioavailability in dog. Type of data set: ADME, organism-based, Canis lupus familiaris. As to conditions: in vivo.
A short description of data set [5]: The half life in dog. Type of data set: ADME, organism-based, Canis lupus familiaris. As to conditions: in vivo.

This note sets out measurements from ChEMBL document CHEMBL1130027, “Improved P1/P1' substituents for cyclic urea based HIV-1 protease inhibitors: synthesis, structure-activity relationship, and X-ray crystal structure analysis” (J Med Chem, 1997).

By IC90 is commonly meant the concentration needed for an effect of 90%. A high value points to a need for much substance. A word on the Ki: it is the dissociation constant of the complex between target and ligand, obtained from inhibition or displacement. A word on the Cmax: it is the maximum level reached in the sampled fluid or tissue. A word on the bioavailability: it is the share of a dose that reaches the circulation, judged against a reference dose that is usually intravenous. A high value points to much systemic uptake. One may read the half-life as the time in which the quantity being followed falls by half.

Some results are limits rather than exact numbers.

Molecule `CC(=O)c1cccc(CN2C(=O)N(Cc3cccc(C(C)=O)c3)[C@H](Cc3ccc4c(c3)CCO4)[C@H](O)[C@@H](O)[C@H]2Cc2ccc3c(c2)CCO3)c1` gave an IC90 in data set [1] of 10 nM. The affinity in data set [2], expressed as Ki, was 0.048 nM.

On to `COc1cc(C[C@@H]2[C@H](O)[C@@H](O)[C@@H](Cc3cc(OC)cc(OC)c3)N(Cc3cccc(C(C)=O)c3)C(=O)N2Cc2cccc(C(C)=O)c2)cc(OC)c1`, for which, in data set [1], the 90% effect level (IC90) was put at 46.4 nM. In data set [2], this molecule gave an inhibition constant Ki of 0.4 nM.

`O=C1N(Cc2ccccc2)[C@H](Cc2ccc3c(c2)OCCO3)[C@H](O)[C@@H](O)[C@@H](Cc2ccc3c(c2)OCCO3)N1Cc1ccccc1`: in data set [1], the concentration for an effect of 90% (IC90) was determined as 112 nM. For the same molecule, the affinity in data set [2] corresponds to a Ki of 0.44 nM.

`CC(=O)c1cccc(CN2C(=O)N(Cc3cccc(C(C)=O)c3)[C@H](Cc3ccc4c(c3)N(C)CCO4)[C@H](O)[C@@H](O)[C@H]2Cc2ccc3c(c2)N(C)CCO3)c1`: the 90% effect concentration (IC90) in data set [1] came to 16.4 nM. Besides, in data set [2], the affinity corresponds to a Ki of 0.08 nM.

For `CNc1cccc(CN2C(=O)N(Cc3cccc(NC)c3)[C@H](Cc3ccc4c(c3)OCCO4)[C@H](O)[C@@H](O)[C@H]2Cc2ccc3c(c2)OCCO3)c1`, in data set [1], it took 8.7 nM to reach the 90% level (IC90). The same molecule came in with an inhibition constant Ki in data set [2] of 0.14 nM. The same molecule showed a Cmax in data set [3] of 220 ng/mL. Besides, the bioavailability in data set [4] came to 4.6%. In data set [5], this molecule gave a half-life of 48 min.

Molecule `CC(=O)c1cc(CN2C(=O)N(Cc3ccc(F)c(C(C)=O)c3)[C@H](Cc3ccc4c(c3)OCCO4)[C@H](O)[C@@H](O)[C@H]2Cc2ccc3c(c2)OCCO3)ccc1F` had an IC90 in data set [1] of 84 nM. In data set [2], affinity was put at a Ki of 0.64 nM.

In data set [1], `Nc1cccc(CN2C(=O)N(Cc3cccc(N)c3)[C@H](Cc3ccc4c(c3)OCCO4)[C@H](O)[C@@H](O)[C@H]2Cc2ccc3c(c2)OCCO3)c1` returned an IC90 of 40 nM. The molecule also showed a Ki in data set [2] of 0.04 nM.

In turn, `O=C1N(Cc2ccc3ccccc3c2)[C@H](Cc2ccc3c(c2)OCCO3)[C@H](O)[C@@H](O)[C@@H](Cc2ccc3c(c2)OCCO3)N1Cc1ccc2ccccc2c1` displayed a 90% effect concentration (IC90) in data set [1] of 98 nM. The molecule also had a Ki in data set [2] of 0.04 nM.

Consider `O=C1N(Cc2ccc(CO)cc2)[C@H](Cc2ccc3c(c2)OCCO3)[C@H](O)[C@@H](O)[C@@H](Cc2ccc3c(c2)OCCO3)N1Cc1ccc(CO)cc1`, for which the 90% effect concentration (IC90) in data set [1] was 83 nM. In data set [2], this molecule showed a Ki of 0.05 nM.

The molecule `COc1cc(C[C@@H]2[C@H](O)[C@@H](O)[C@@H](Cc3cc(OC)cc(OC)c3)N(Cc3ccccc3)C(=O)N2Cc2ccccc2)cc(OC)c1` registered an IC90 in data set [1] of over 5000 nM. The molecule further yielded an inhibition constant Ki in data set [2] of 8 nM.

Regarding `COc1ccc(C[C@@H]2[C@H](O)[C@@H](O)[C@@H](Cc3ccc(OC)c(OC)c3)N(Cc3ccccc3)C(=O)N2Cc2ccccc2)cc1OC`, in data set [1], the 90% effect level (IC90) was put at 640 nM. In addition, the inhibition constant (Ki) in data set [2] is 6.4 nM.

For `O=C1N(Cc2ccccc2)[C@H](Cc2ccc3c(c2)OCO3)[C@H](O)[C@@H](O)[C@@H](Cc2ccc3c(c2)OCO3)N1Cc1ccccc1`, the 90% effect concentration (IC90) in data set [1] worked out at 504 nM. For the same molecule, in data set [2], the Ki stood at 1 nM.

The molecule `Nc1cccc(CN2C(=O)N(Cc3cccc(N)c3)[C@H](Cc3ccc4c(c3)CCO4)[C@H](O)[C@@H](O)[C@H]2Cc2ccc3c(c2)CCO3)c1` showed an IC90 in data set [1] of 30.6 nM. The inhibition constant (Ki) in data set [2] was found to be 0.11 nM.

In data set [1], `CNc1cccc(CN2C(=O)N(Cc3cccc(NC)c3)[C@H](Cc3ccc4c(c3)CCO4)[C@H](O)[C@@H](O)[C@H]2Cc2ccc3c(c2)CCO3)c1` gave an IC90 of 61.6 nM. Moreover, affinity in data set [2] was put at a Ki of 0.2 nM.

In data set [1], `CC(=O)c1cccc(CN2C(=O)N(Cc3cccc(C(C)=O)c3)[C@H](Cc3ccc4c(c3)OCO4)[C@H](O)[C@@H](O)[C@H]2Cc2ccc3c(c2)OCO3)c1` returned a concentration for an effect of 90% (IC90) of 14.7 nM. The affinity in data set [2] corresponds to a Ki of 0.043 nM.

Regarding `CNc1cccc(CN2C(=O)N(Cc3cccc(N)c3)[C@H](Cc3ccc4c(c3)OCCO4)[C@H](O)[C@@H](O)[C@H]2Cc2ccc3c(c2)OCCO3)c1`, the 90% effect level in data set [1] (IC90) was put at 27 nM. The same molecule gave a Ki in data set [2] of 0.11 nM.

`O=C1N(Cc2ccccc2)[C@H](Cc2ccccc2)[C@H](O)[C@@H](O)[C@@H](Cc2ccccc2)N1Cc1ccccc1` had an IC90 in data set [1] of 790 nM.

For the molecule `O=C1N(Cc2ccccc2)[C@H](Cc2ccc3ccccc3c2)[C@H](O)[C@@H](O)[C@@H](Cc2ccc3ccccc3c2)N1Cc1ccccc1`, the IC90 in data set [1] was found to be 3200 nM.

On to `CC(=O)c1cccc(CN2C(=O)N(Cc3cccc(C(C)=O)c3)[C@H](Cc3ccc4c(c3)OCCO4)[C@H](O)[C@@H](O)[C@H]2Cc2ccc3c(c2)OCCO3)c1`, for which, in data set [1], the concentration for an effect of 90% (IC90) is 4.2 nM. Also, the Ki in data set [2] came out at 0.04 nM.

Molecule `CN1CCOc2ccc(C[C@@H]3[C@H](O)[C@@H](O)[C@@H](Cc4ccc5c(c4)N(C)CCO5)N(Cc4ccccc4)C(=O)N3Cc3ccccc3)cc21` displayed an IC90 in data set [1] of 218 nM. Further, in data set [2], the Ki was 0.7 nM.

`O=C1N(Cc2ccccc2)[C@H](Cc2ccc3c(c2)CCO3)[C@H](O)[C@@H](O)[C@@H](Cc2ccc3c(c2)CCO3)N1Cc1ccccc1`: in data set [1], the 90% effect level (IC90) was put at 305 nM.

`O=C1N(CC2CC2)[C@H](Cc2ccc3c(c2)OCCO3)[C@H](O)[C@@H](O)[C@@H](Cc2ccc3c(c2)OCCO3)N1CC1CC1` returned an IC90 in data set [1] of 928 nM. In addition, affinity in data set [2] was put at a Ki of 0.27 nM.

`CC(=O)c1cc(CN2C(=O)N(Cc3ccc(F)c(C(C)=O)c3)[C@H](Cc3ccc4c(c3)OCO4)[C@H](O)[C@@H](O)[C@H]2Cc2ccc3c(c2)OCO3)ccc1F` gave an IC90 in data set [1] of 265 nM. In addition, the inhibition constant (Ki) in data set [2] amounted to 1.5 nM.

With `O=C1N(Cc2ccc(O)cc2)[C@H](Cc2ccc3c(c2)OCCO3)[C@H](O)[C@@H](O)[C@@H](Cc2ccc3c(c2)OCCO3)N1Cc1ccc(O)cc1`, the IC90 in data set [1] came out at 107 nM. This molecule also returned an inhibitory constant (Ki) in data set [2] of 0.03 nM.
